Measured values as given in publication PMC11930913, “Anticancer, antioxidant and antibacterial potential of L-Glutaminase (Streptomyces roseolus strain ZKB1) capped silver and zinc oxide nanoparticles and its molecular characterization” (Bioresources and Bioprocessing, 2025).

Tested on: T1, L-Glutaminase (Streptomyces roseolus strain ZKB1)
T1 construct: gene glsA
Experiment: ammonia release by Nessler's reagent, […] nm; Lineweaver-Burk
Type: cell-based
Details: free enzyme; phosphate buffer pH 7.0; 37 °C; 30 min; 25-100 mM substrate

A Km of 13.9 ± 0.8 mM was found for `NC(=O)CC[C@H](N)C(=O)O` [L-glutamine] in this work.
